From ChEMBL document CHEMBL5724796, “Tm Shift (DSF) assay results for EUbOPEN Chemogenomics Library” (2024)
Residues, ends and D or L forms follow the SMILES beside them.

Columns and labels:
Peregrin (Homo sapiens) = biological target: T1, Peregrin (Homo sapiens) (UniProt P55201); conditions: Compound concentration 20.0 uM
T1 sequence (whole entry): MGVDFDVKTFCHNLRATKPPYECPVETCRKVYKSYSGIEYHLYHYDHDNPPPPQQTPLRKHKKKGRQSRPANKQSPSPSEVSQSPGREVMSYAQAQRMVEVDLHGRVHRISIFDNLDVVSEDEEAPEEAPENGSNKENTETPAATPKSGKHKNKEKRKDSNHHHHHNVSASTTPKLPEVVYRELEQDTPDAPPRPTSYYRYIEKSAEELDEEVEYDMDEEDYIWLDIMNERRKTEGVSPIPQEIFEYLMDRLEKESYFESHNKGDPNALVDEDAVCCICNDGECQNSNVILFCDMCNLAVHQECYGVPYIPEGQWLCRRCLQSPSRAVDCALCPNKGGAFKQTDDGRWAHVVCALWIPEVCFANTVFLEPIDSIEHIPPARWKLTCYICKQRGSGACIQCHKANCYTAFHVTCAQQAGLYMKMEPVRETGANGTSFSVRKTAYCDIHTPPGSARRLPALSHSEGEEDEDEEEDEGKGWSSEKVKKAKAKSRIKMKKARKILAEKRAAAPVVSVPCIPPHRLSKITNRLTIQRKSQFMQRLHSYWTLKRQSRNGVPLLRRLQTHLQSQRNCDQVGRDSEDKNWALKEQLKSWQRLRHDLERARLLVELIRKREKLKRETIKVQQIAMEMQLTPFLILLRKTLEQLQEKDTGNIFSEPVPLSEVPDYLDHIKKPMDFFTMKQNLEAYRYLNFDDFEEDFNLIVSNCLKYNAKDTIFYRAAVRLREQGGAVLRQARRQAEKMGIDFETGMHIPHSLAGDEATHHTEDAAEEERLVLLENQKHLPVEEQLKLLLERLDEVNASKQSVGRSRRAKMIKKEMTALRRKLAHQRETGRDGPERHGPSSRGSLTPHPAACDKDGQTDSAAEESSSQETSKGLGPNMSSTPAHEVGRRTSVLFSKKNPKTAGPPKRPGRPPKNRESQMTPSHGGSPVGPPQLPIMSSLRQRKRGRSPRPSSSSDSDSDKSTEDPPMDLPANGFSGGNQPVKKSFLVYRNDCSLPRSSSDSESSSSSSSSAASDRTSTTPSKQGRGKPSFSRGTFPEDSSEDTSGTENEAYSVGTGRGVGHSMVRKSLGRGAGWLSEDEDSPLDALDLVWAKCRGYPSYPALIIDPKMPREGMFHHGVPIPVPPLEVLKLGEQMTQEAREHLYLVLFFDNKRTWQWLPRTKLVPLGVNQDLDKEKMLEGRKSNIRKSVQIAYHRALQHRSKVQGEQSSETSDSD

[1] = biological target: Fibroblast growth factor receptor 2 (Homo sapiens) (UniProt P21802); conditions: Compound concentration 20.0 uM
Fibroblast growth factor receptor 2 (Homo sapiens), sequence (P21802 22-821 limits assumed): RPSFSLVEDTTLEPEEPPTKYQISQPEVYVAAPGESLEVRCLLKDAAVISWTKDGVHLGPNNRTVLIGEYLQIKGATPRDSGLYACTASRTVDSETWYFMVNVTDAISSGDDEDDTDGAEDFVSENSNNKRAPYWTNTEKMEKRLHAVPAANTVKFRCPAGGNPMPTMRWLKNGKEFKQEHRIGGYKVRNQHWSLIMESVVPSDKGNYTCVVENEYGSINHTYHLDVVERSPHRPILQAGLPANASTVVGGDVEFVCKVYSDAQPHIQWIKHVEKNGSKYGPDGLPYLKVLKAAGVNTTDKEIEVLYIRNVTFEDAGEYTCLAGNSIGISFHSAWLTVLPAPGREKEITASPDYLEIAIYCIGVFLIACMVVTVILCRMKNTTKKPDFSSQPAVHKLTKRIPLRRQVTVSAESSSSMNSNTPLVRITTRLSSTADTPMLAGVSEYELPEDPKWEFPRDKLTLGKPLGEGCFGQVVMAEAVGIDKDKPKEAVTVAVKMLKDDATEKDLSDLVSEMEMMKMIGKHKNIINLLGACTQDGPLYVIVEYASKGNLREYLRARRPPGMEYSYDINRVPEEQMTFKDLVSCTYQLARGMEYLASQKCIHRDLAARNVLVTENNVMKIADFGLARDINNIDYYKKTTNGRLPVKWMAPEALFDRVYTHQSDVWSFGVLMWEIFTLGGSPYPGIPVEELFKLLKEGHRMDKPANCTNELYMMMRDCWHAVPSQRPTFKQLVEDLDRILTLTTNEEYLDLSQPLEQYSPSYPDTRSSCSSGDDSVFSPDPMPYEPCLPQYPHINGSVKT
Description: Thermal Shift Assay. Domain: start/stop: T457-E768

SMILES: NC(=O)c1ccc(Oc2ccc(C(N)=O)cc2)cc1
- ΔTm (Peregrin (Homo sapiens)): -2.11 °C
- ΔTm [1]: 0.24 °C

SMILES: CN(C)Cc1ccc(S(=O)(=O)n2ccc(/C=C/C(=O)NO)c2)cc1
- ΔTm (Peregrin (Homo sapiens)): -0.83 °C
- ΔTm [1]: 0.36 °C

SMILES: CCCCOc1c(OC)cc(C(=O)NCC2(N(C)C)CCOCC2)cc1OC
- ΔTm (Peregrin (Homo sapiens)): -1.37 °C
- ΔTm [1]: -0.02 °C

SMILES: Nc1cccc(CNC(=O)c2ccc(Oc3ccc(OCc4cccc(F)c4)cc3)nc2)c1
- ΔTm (Peregrin (Homo sapiens)): 2.81 °C
- ΔTm [1]: -0.6 °C

SMILES: O=C(N(CCc1ccccc1)C1CCCCC1)n1ncc(-c2ccc(OC(F)(F)F)cc2)n1
- ΔTm (Peregrin (Homo sapiens)): 1.62 °C
- ΔTm [1]: -0.24 °C

SMILES: C[C@@H]1CN(Cc2ncccn2)C[C@H]1c1nc2c(cnn2C2CCOCC2)c(=O)[nH]1
- ΔTm (Peregrin (Homo sapiens)): 0.83 °C
- ΔTm [1]: 0.17 °C

SMILES: O=C(O)C1=CCCN(CCOC(c2ccc(C(F)(F)F)cc2)c2ccc(C(F)(F)F)cc2)C1
- ΔTm (Peregrin (Homo sapiens)): 0.47 °C
- ΔTm [1]: -0.15 °C

SMILES: O=c1[nH]c(Oc2cnn(Cc3ccccc3)c2)nc2cnccc12
- ΔTm (Peregrin (Homo sapiens)): 3.09 °C
- ΔTm [1]: -0.24 °C

SMILES: Cc1c(NC(=O)c2cc(C(N)=O)nc3cc(F)ccc23)c(C(F)(F)F)nn1Cc1ccc(C#N)cc1
- ΔTm (Peregrin (Homo sapiens)): 0.94 °C
- ΔTm [1]: 0.32 °C

SMILES: O=C(O)/C(S)=C/c1ccc(I)cc1
- ΔTm (Peregrin (Homo sapiens)): -1.4 °C
- ΔTm [1]: -1 °C

SMILES: CC[C@H](C)[C@H](NC(C)=O)C(=O)N[C@@H](CCC(=O)O)C(=O)N[C@H](C(=O)N[C@H](C=O)CC(=O)O)[C@@H](C)O (Ac-IETD-aldehyde)
- ΔTm (Peregrin (Homo sapiens)): -0.66 °C
- ΔTm [1]: 0.37 °C

SMILES: O=S(=O)(O)c1ccc2cc(/N=N/c3cc(S(=O)(=O)O)c4cccnc4c3O)ccc2c1
- ΔTm (Peregrin (Homo sapiens)): -0.89 °C
- ΔTm [1]: -0.08 °C

SMILES: O=C(C1CC1)N1CCN(Cn2sc3ccccc3c2=O)CC1
- ΔTm (Peregrin (Homo sapiens)): -1.36 °C
- ΔTm [1]: 0.46 °C

SMILES: CNc1nccc(CN([C@H]2CC[C@H](N)CC2)S(=O)(=O)c2ccc(S(=O)(=O)N(Cc3ccc(Cl)cc3)C3CCCC3)cc2)n1
- ΔTm (Peregrin (Homo sapiens)): -1.21 °C
- ΔTm [1]: -1.14 °C

SMILES: NS(=O)(=O)OC[C@H]1C[C@@H](Nc2ccnc3cc(-c4cccc(SC(F)(F)F)c4)nn23)[C@H](O)[C@@H]1O
- ΔTm (Peregrin (Homo sapiens)): 3.28 °C
- ΔTm [1]: -0.4 °C

SMILES: CN(C)CCCN(CC[C@H](N)C(=O)O)C[C@H]1O[C@@H](n2cnc3c(N)ncnc32)[C@H](O)[C@@H]1O
- ΔTm (Peregrin (Homo sapiens)): -1.18 °C
- ΔTm [1]: -1.19 °C

SMILES: Cn1c(NCCN(CCO)CCCc2ccc([N+](=O)[O-])cc2)cc(=O)n(C)c1=O
- ΔTm (Peregrin (Homo sapiens)): 1.28 °C
- ΔTm [1]: 0.47 °C

SMILES: COc1cc(-c2cn(C)c(=O)c3cnccc23)cc(OC)c1CN(C)C
- ΔTm (Peregrin (Homo sapiens)): 6.51 °C
- ΔTm [1]: 0.18 °C

SMILES: COc1ncc(C)c(-c2ccc3c(c2)[nH]c(=O)c2cnn([C@H]4CCOC4)c23)c1C
- ΔTm (Peregrin (Homo sapiens)): 0.86 °C
- ΔTm [1]: -0.58 °C

SMILES: NC(=O)c1cnc(N[C@@H]2CCCC[C@@H]2N)nc1Nc1cccc(-n2nccn2)c1
- ΔTm (Peregrin (Homo sapiens)): -1.09 °C
- ΔTm [1]: 0.98 °C

SMILES: Cc1cc(Cn2c(=O)n(Cc3cnc(C)s3)c(=O)c3cc(S(=O)(=O)NC4(C)CC4)ccc32)n(C)n1
- ΔTm (Peregrin (Homo sapiens)): -1.12 °C
- ΔTm [1]: 0.47 °C

SMILES: CCn1c(=O)c(C)cn(Cc2nnc(-c3ccc(F)c(O)c3F)s2)c1=O
- ΔTm (Peregrin (Homo sapiens)): -0.64 °C
- ΔTm [1]: 0.53 °C
